Results published in ChEMBL document CHEMBL1201862, “PubChem BioAssay data set” (2004).
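Following 48 hours of exposure in 96-well plates, responses at five concentrations were used to interpolate endpoints linearly. GI50 is the concentration that inhibits growth by half.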 Calls of active or inactive are those of the source. Cut-off read from the data, not from the text of the source: active = GI50 up to about 1.1 µM and inactive = higher.

Assays:
Assay in all cases: NCI anticancer screen, dose series, 48 h
SNB-78 = system: SNB-78
RXF 631 = system: RXF 631
LXFL 529 = system: LXFL 529
DLD-1 = system: DLD-1
XF498 = system: XF498
HOP-18 = system: HOP-18
KM-20L2 = system: KM-20L2

O=C(O)CCC(NC(=O)c1ccccc1)C(=O)O (stereo unspecified)
GI50 (SNB-78): > 100 µM (inactive) | GI50 (RXF 631): > 100 µM (inactive) | GI50 (LXFL 529): > 100 µM (inactive) | GI50 (DLD-1): > 100 µM (inactive) | GI50 (XF498): > 100 µM (inactive) | GI50 (HOP-18): > 100 µM (inactive) | GI50 (KM-20L2): > 100 µM (inactive)

N#Cc1c([N+](=O)[O-])cc(C(F)(F)F)cc1[N+](=O)[O-]
GI50 (SNB-78): 2.07 µM (inactive) | GI50 (RXF 631): 9.79 µM (inactive) | GI50 (LXFL 529): 2.07 µM (inactive) | GI50 (DLD-1): 3.87 µM (inactive) | GI50 (XF498): 1.83 µM (inactive) | GI50 (HOP-18): 11.2 µM (inactive) | GI50 (KM-20L2): 17.1 µM (inactive)

Cn1c2cccc3nnc4cccc(c4c32)n1C
GI50 (SNB-78): > 100 µM (inactive) | GI50 (RXF 631): > 100 µM (inactive) | GI50 (LXFL 529): > 100 µM (inactive) | GI50 (DLD-1): > 100 µM (inactive) | GI50 (XF498): > 100 µM (inactive) | GI50 (KM-20L2): > 100 µM (inactive)

CCOC(=O)c1cnc2c(ccc3ncccc32)c1NCCCN(CC)CC
GI50 (SNB-78): > 100 µM (inactive) | GI50 (LXFL 529): > 100 µM (inactive) | GI50 (DLD-1): > 100 µM (inactive) | GI50 (XF498): > 100 µM (inactive) | GI50 (HOP-18): > 100 µM (inactive) | GI50 (KM-20L2): 34.2 µM (inactive)

CCCC1C(=O)C(CC)Cc2c(OC)ccc(OC)c21 (stereo unspecified)
GI50 (SNB-78): > 100 µM (inactive) | GI50 (RXF 631): > 100 µM (inactive) | GI50 (LXFL 529): > 100 µM (inactive) | GI50 (DLD-1): > 100 µM (inactive) | GI50 (XF498): > 100 µM (inactive)

COC(=O)C1C2CC3C(OC(=O)C31)C2OC(=O)[C@](OC)(c1ccccc1)C(F)(F)F (stereo partly specified)
GI50 (SNB-78): > 100 µM (inactive) | GI50 (RXF 631): > 100 µM (inactive) | GI50 (LXFL 529): > 100 µM (inactive) | GI50 (DLD-1): > 100 µM (inactive) | GI50 (XF498): > 100 µM (inactive) | GI50 (KM-20L2): > 100 µM (inactive)

Cc1ccc(C)c(N2C/C(=N\NC(=O)CC#N)C(c3nc4ccccc4s3)C(=O)C2=O)c1 (stereo unspecified)
GI50 (SNB-78): > 100 µM (inactive) | GI50 (LXFL 529): > 100 µM (inactive) | GI50 (DLD-1): > 100 µM (inactive) | GI50 (XF498): > 100 µM (inactive) | GI50 (HOP-18): > 100 µM (inactive) | GI50 (KM-20L2): > 100 µM (inactive)

O=C1c2ccccc2C(=O)N1CCn1ccc(NC(c2ccccc2)(c2ccccc2)c2ccccc2)nc1=O
GI50 (SNB-78): 30.8 µM (inactive) | GI50 (RXF 631): 15 µM (inactive) | GI50 (LXFL 529): 28.4 µM (inactive) | GI50 (DLD-1): 19.1 µM (inactive) | GI50 (XF498): 13.9 µM (inactive) | GI50 (HOP-18): 24.2 µM (inactive) | GI50 (KM-20L2): 14.1 µM (inactive)

CCN(CC)CC(=O)N1CCc2c([nH]c3ccccc23)C1c1cccnc1 (stereo unspecified)
GI50 (SNB-78): > 100 µM (inactive) | GI50 (RXF 631): > 100 µM (inactive) | GI50 (LXFL 529): > 100 µM (inactive) | GI50 (DLD-1): > 100 µM (inactive) | GI50 (XF498): > 100 µM (inactive) | GI50 (HOP-18): > 100 µM (inactive) | GI50 (KM-20L2): > 100 µM (inactive)

COc1nc(NC2OC(COC(C)=O)C(OC(C)=O)C(OC(C)=O)C2OC(C)=O)c2c(OC(C)=O)cc(=O)oc2n1 (stereo unspecified)
GI50 (SNB-78): > 100 µM (inactive) | GI50 (LXFL 529): > 100 µM (inactive) | GI50 (DLD-1): > 100 µM (inactive) | GI50 (XF498): > 100 µM (inactive) | GI50 (HOP-18): > 100 µM (inactive) | GI50 (KM-20L2): > 100 µM (inactive)

CN/C=C(\C(=O)c1ccc(OC)c(OC)c1)c1ccc(OC)cc1
GI50 (RXF 631): 14.3 µM (inactive) | GI50 (LXFL 529): 16 µM (inactive) | GI50 (DLD-1): 15.6 µM (inactive) | GI50 (XF498): 18.5 µM (inactive) | GI50 (HOP-18): < 0.01 µM (active)

O=C(NC1C2CC3CC(C2)CC1C3)c1ccncn1 (stereo unspecified)
GI50 (SNB-78): > 100 µM (inactive) | GI50 (RXF 631): > 100 µM (inactive) | GI50 (LXFL 529): > 100 µM (inactive) | GI50 (DLD-1): > 100 µM (inactive) | GI50 (KM-20L2): > 100 µM (inactive)

CCN(CC)CCCN1CCc2c([nH]c3ccccc23)C1c1cccnc1 (stereo unspecified)
GI50 (SNB-78): > 100 µM (inactive) | GI50 (RXF 631): > 100 µM (inactive) | GI50 (LXFL 529): > 100 µM (inactive) | GI50 (DLD-1): > 100 µM (inactive) | GI50 (XF498): 5.22 µM (inactive) | GI50 (KM-20L2): > 100 µM (inactive)

COc1cc(C[S+]2CCCC2)c(SC)cc1C[S+]1CCCC1
GI50 (SNB-78): > 100 µM (inactive) | GI50 (RXF 631): > 100 µM (inactive) | GI50 (LXFL 529): > 100 µM (inactive) | GI50 (DLD-1): > 100 µM (inactive) | GI50 (XF498): 74.5 µM (inactive) | GI50 (KM-20L2): > 100 µM (inactive)

CC(=O)O[C@H]1[C@H](O[C@H]2CC[C@]34C[C@]35CC[C@]3(C)[C@@H]([C@@]6(C)CC[C@@H](C(C)(C)O)O6)[C@@H](O)C[C@@]3(C)[C@@H]5C[C@H](O[C@@H]3O[C@H](CO)[C@@H](O)[C@H](O)[C@H]3O)[C@H]4C2(C)C)OC[C@@H](O)[C@@H]1O
GI50 (SNB-78): > 100 µM (inactive) | GI50 (RXF 631): > 100 µM (inactive) | GI50 (LXFL 529): 74.8 µM (inactive) | GI50 (DLD-1): 71.1 µM (inactive) | GI50 (XF498): > 100 µM (inactive) | GI50 (HOP-18): > 100 µM (inactive) | GI50 (KM-20L2): 69.7 µM (inactive)

CC(=O)Oc1ccccc1 [ACETIC ACID PHENYL ESTER]
GI50 (RXF 631): > 100 µM (inactive) | GI50 (LXFL 529): > 100 µM (inactive) | GI50 (DLD-1): > 100 µM (inactive) | GI50 (KM-20L2): > 100 µM (inactive)
